Read-outs that look alike come from different tables or passages of the source.
Columns and labels:
[1] = Chemical stability of Cremophor based IV formulation; assay type: physicochemical; conditions: about 1 mg/ml in Cremophor:ethyl alcohol 1:1 diluted 1:9 in saline, WFI, lactate Ringer's or D5W
Experimental: PFK-158 and its salts can be prepared in a Cremophor® based formulation. In one embodiment, 10 mg PFK-158 are dissolved in 1 ml of 1:1 v:v Cremophor®:ethyl alcohol solution using vigorous stirring. Once the compound is effectively dissolved, the solution is filtered and then added to saline, water for injection, lactate Ringer's, or D5W in a 1:9 ratio, resulting in a clear solution, free from particles, with a PFK-158 concentration of about 1 mg/ml. The composition is chemically stable for at least 6 hours and can be administered to mammals, including humans.

[2] = Repeat-dose toxicology study in SD rats; assay type: in vivo
Experimental: Toxicology studies were performed in SD rats comparing PFK-158 and PFK-015 using a repeat dosing schedule. The studies were performed at dose levels ranging from 5 to 30 mg/kg and animals were monitored for weight loss, behavior, clinical signs, and clinical chemistries. At the end of the study, gross pathology and histopathology were performed.

Jurkat cells = assay: Inhibition of 14C-2-deoxyglucose uptake; assay type: cell-based; conditions: Homo sapiens, Jurkat cells
Experimental: Inhibition of PFKFB3 results in inhibiting glycolysis. Several feedback or feedforward activation and inhibition mechanisms exist so that, by a feedback mechanism, inhibiting the activity of PFKFB3 might inhibit glucose uptake by cells. An assay was developed to determine if there was inhibition of glucose uptake following exposure PFK-158. Briefly, Jurkat cells were plated at 10^5 cells/mL in RPMI 1640 supplemented with 10% fetal bovine serum and 50 μg/mL gentamicin sulfate. Cells were immediately treated with vehicle or 0.5 μmol/L of PFK-158 for 3 hours and subsequently placed in glucose-free RPMI 1640 for 30 min. ^14C-2-deoxyglucose (0.25 μCi/mL; Perkin Elmer) was added for an additional 60 min and cells were then washed three times with ice-cold RPMI 1640 containing no glucose. Cell lysates were collected in 500 μL of 0.1% SDS and scintillation counts (counts/min) were measured on 400 μL of lysate. Counts were normalized to protein concentration.

[3] = Toxicology study in dogs at 40 mg/kg; assay type: in vivo, beagle dogs
Experimental: In another embodiment, the potential toxicity of PFK-158 (in the form of its dication) was investigated at 40 mg/kg in male and female beagle dogs using a 3 day a week for a total of three weeks dosing regimen. The potential toxicity of PFK-158 was investigated by monitoring all clinical signs during the in-life phase, taking blood and urine samples for full clinical chemistry panels and urinalysis, monitoring body weights and food intake. Gross necropsy and complete histopathology were performed at the time of termination.

PFKFB3 = PFKFB3 (Homo sapiens, UniProt Q16875); assay: Enzymatic activity of recombinant PFKFB3, ADP-Glo assay; assay type: biochemical
Chain of PFKFB3 (Q16875 whole entry): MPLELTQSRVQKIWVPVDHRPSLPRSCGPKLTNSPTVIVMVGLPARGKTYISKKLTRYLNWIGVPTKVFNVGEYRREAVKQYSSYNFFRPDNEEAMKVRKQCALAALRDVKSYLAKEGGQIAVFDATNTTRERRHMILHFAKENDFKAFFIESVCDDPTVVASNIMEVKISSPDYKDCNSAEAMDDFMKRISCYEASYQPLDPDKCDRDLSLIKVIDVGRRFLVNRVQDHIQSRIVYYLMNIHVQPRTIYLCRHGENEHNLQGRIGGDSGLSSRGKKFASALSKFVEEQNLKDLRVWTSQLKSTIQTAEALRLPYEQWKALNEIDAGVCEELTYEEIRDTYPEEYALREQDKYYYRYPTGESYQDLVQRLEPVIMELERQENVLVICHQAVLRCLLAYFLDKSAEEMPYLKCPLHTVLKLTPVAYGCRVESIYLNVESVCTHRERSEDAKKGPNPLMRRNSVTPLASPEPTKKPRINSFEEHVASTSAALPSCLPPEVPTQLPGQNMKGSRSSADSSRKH
Experimental: The inducible bifunctional 6-Phosphofructo-2-kinase/fructose2,6-biphosphatase enzyme (PFKFB3) was expressed and purified in order to determine if PFK-158 inhibits enzymatic activity. PFKFB3 was prepared by expression in E. coli and purified by GST column and column chromatography. […] The recombinant protein was pure and active as determined by the results of a commercially available kinase activity assay (ADP-Glo™, Promega, Madison, Wis.).

BT474 = assay: Cancer cell proliferation, MTT assay; assay type: cell-based; conditions: Homo sapiens, BT-474, 48 hours
Experimental: (§1) The ability of PFK-158 to kill or inhibit the proliferation of cancer cells was measured using either the MTT assay, the alamarBlue® assay (Invitrogen, Grand Island, N.Y.), or the CellTiter Glo™ assay (Promega, Madison, Wis.) using 48 or 72 hours exposure.
(§2) Cells of the desired tumor cell line were plated at 2×10^5 cells/ml in 96 well plates. Twice the indicated concentrations of the compounds of the invention were added to cells the following day in an equal volume of media. 72 hours later, cells were lysed and subjected to ATP determination using the CellTiter-Glo™ Luminescent Cell Viability Assay kit. Experiments were performed in triplicate. When using the MTT assay or the alamarBlue® assay, the experimental conditions are essentially similar; at the end of the incubation period, 20 microliters of the MTT solution is added per well and the samples are incubated for an additional four hours, rinsed, and absorbance at 570 nm was measured. Results for the inhibition of cell proliferation are reported as the IC50 (the concentration resulting in 50% inhibition of proliferation of the cell population) and are listed in Table 5 below. Cell lines include lung, colon, prostate, breast, ovarian, and pancreatic cancer lines.

PC-3 = assay: Cancer cell proliferation, MTT assay; assay type: cell-based; conditions: Homo sapiens; PC-3, MTT assay, 48 hours
Experimental: as §1, §2

SKOV-3 = assay: Cancer cell proliferation, MTT assay; assay type: cell-based; conditions: Homo sapiens, SK-OV-3; SKOV-3, MTT assay, 48 hours
Experimental: as §1, §2

SW620 = assay: Cancer cell proliferation, MTT assay; assay type: cell-based; conditions: Homo sapiens, SW-620, 48 hours
Experimental: as §1, §2

HCT116 = assay: Cancer cell proliferation, MTT assay; assay type: cell-based; conditions: Homo sapiens, HCT-116, 48 hours
Experimental: as §1, §2

HT29 = assay: Cancer cell proliferation, MTT assay; assay type: cell-based; conditions: Homo sapiens, HT-29, 48 hours
Experimental: as §1, §2

SK-BR-3 = assay: Cancer cell proliferation, MTT assay; assay type: cell-based; conditions: Homo sapiens; SK-BR-3, MTT assay, 48 hours
Experimental: as §1, §2

A498 = assay: Cancer cell proliferation, MTT assay; assay type: cell-based; conditions: Homo sapiens, 48 hours
Experimental: as §1, §2

MiaPaCa-2 = assay: Cancer cell proliferation, MTT assay; assay type: cell-based; conditions: Homo sapiens, MIA PaCa-2; MiaPaCa-2, MTT assay, 48 hours
Experimental: as §1, §2

A549 = assay: Cancer cell proliferation, MTT assay; assay type: cell-based; conditions: Homo sapiens, 48 hours
Experimental: as §1, §2

LLC tumor = assay: Lewis lung carcinoma (LLC) model; assay type: in vivo; conditions: IP 60 mg/kg on days 1, 3, 5, 7, 9, 11, 13
Text: Treatment began following randomization.

[4] = Maximum tolerated dose study; assay type: in vivo; conditions: 3 days on/3 days off schedule
Experimental: Several maximum tolerated dose studies and toxicology studies were performed and the results indicated PFK-158 is safer than PFK-015. Studies were performed in C57/B16 mice and SD rats.

With `O=C(/C=C/c1ccc2ccc(C(F)(F)F)cc2n1)c1ccncc1` [PFK-158, (E)-1-(pyridyn-4-yl)-3-(7-(trifluoromethyl)quinolin-2-yl)-prop-2-en-1-one] the “chemical stability of composition” value [1] was “at least 6 hours”, the MTD ([2]; rat, in vivo, repeat dosing schedule) was > 30 mg/kg and the “Adverse observations in toxicology study” value ([2]; repeat dosing, PFK-158 5 to 30 mg/kg, PFK-015 12 and 25 mg/kg) was “no adverse observations”. It also gave an IC50 (Jurkat cells; FIG. 2, 14C-2-deoxyglucose, read-out: IC50, inhibition of glucose uptake) of 847 ± 150 nM, an IC50 (Jurkat cells; Table 1, read-out: IC50, Inhibition of 2 deoxyglucose uptake) of 800 ± 100 nM and an IC50 (Jurkat cells; Table 6, read-out: IC50 Glucose Uptake) of 847 ± 150 nM. The signs of toxicity ([3]; beagle dogs, 40 mg/kg three times a week for three weeks) was “no signs of toxicity”, the NOAEL at 3 weeks ([3]; both sexes, beagle, dog, in vivo) was 40 mg/kg and the “Human Equivalent Dose (HED) of the NOAEL” value ([3]; dog, in vivo) was 800 mg/m^2. It also gave an IC50 (PFKFB3; FIG. 1, read-out: IC50, inhibition of recombinant PFKFB3 (ADP-Glo)) of 137 ± 15 nM, an IC50 (PFKFB3; Table 1, read-out: IC50, Enzymatic activity of PFKFB3, ADP Glo Assay) of 137 ± 15 nM and an IC50 (PFKFB3; Table 6, read-out: IC50 Rec PFKFB3) of 137 ± 15 nM. For the same molecule, the IC50 (PFKFB3; Table 8, read-out: IC50, Enzymatic activity of PFKFB3, ADP-Glo Assay) was 137 ± 15 nM, the IC50 (BT474) was 1950 nM and the IC50 (PC-3) was 1180 nM. The IC50 (SKOV-3) was 2620 nM, the IC50 (SW620) was 2670 nM and the IC50 (HCT116) was 3.4 µM. The IC50 (HT29) was 4.13 µM, the IC50 (SK-BR-3) was 1600 nM and the IC50 (A498) was 3.51 µM. The IC50 (MiaPaCa-2) was 3.35 µM, the IC50 (A549) was 8.65 µM and the “body weight loss (tolerability)” value (LLC tumor) was “no noticeable body weight loss”. The MTD ([4]; C57/B16, mouse, in vivo, read-out: MTD) was > 45 mg/kg and the MTD ([4]; Table 4, body weight loss superior to 10% or death) was “Not reached, >45 mg/kg”.

— patent US9649305B2, “PFKFB3 inhibitor and methods of use as an anti-cancer therapeutic” (ADVANCED CANCER THERAPEUTICS, LLC, priority 2012, dated 2017)
